Test results reported in US10233180B2, “Substituted nitrogen-containing heterocyclic derivatives, pharmaceutical compositions comprising the same and applications of antitumor thereof” (ZHEJIANG UNIVERSITY, priority 2014, dated 2019).

Experiments:
Akt1 = biological target: T1, Akt1 (Homo sapiens, UniProt P31749); test: AKT1/PKBα KinEASE FP Fluorescein Green Assay (fluorescence polarization kinase kit); assay type: biochemical; settings: 1 h reaction, read-out: Inhibitory activities against Akt1 (IC50)
T1 construct: purchased 32-021
T1 sequence (P31749 whole entry): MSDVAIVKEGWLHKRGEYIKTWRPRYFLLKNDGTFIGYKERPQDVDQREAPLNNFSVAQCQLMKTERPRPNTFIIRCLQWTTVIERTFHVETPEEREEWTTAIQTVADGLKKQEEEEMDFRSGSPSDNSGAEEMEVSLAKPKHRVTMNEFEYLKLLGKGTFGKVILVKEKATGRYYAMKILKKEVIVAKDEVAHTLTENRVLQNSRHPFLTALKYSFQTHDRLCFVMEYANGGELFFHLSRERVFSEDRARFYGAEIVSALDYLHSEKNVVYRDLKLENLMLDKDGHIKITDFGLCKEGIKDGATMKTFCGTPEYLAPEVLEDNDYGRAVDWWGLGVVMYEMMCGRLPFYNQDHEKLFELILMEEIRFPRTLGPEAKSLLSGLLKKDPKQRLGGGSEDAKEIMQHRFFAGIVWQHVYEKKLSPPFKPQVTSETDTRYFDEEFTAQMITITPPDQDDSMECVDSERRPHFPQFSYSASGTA
Method in brief: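 FP competition kinase assay: compounds (50 μM stock) with STK Substrate 3 and ATP, 1 h reaction at room temperature; stopped with stop/antibody mix, 4 h at room temperature, then polarization read. Inhibition derived from polarization values; IC50 calculated; triplicate wells.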

[1] = tested on: Human ovarian cancer cell strain OVCAR-8; test: MTT assay, inhibition of tumor cell growth in vitro, 72 h; assay type: cell-based; settings: Homo sapiens, OVCAR-8, MTT, read-out: Antitumor proliferative activities of tumor cell (IC50, μM) OVCAR-8
Method in brief: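 OVCAR8 cells in RPMI 1640 plus FBS were seeded at 4000 cells/well and exposed for 72 h at 37 °C to compound at 50, 10, 2, 0.4 and 0.08 μM final, with 1% DMSO as blank. Inhibition was calculated from OD relative to control, and IC50 was derived by the Bliss method.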

[2] = tested on: human colon cancer cell strain HCT-116; test: as above; assay type: cell-based; settings: Homo sapiens, HCT-116, MTT, read-out: Antitumor proliferative activities of tumor cell (IC50, μM) HCT-116 (converted)
Method in brief: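 Cells in RPMI 1640 with FBS, 4000 cells/well, exposed 72 h at 37 °C, 5% CO2 to final 50, 10, 2, 0.4 and 0.08 μM; 1% DMSO blank. MTT OD gives % inhibition versus control; IC50 derived by Bliss method.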

Row | SMILES | IC50 (Akt1) | IC50 [1] | IC50 [2]
1 | Cn1ncc(Cl)c1-c1ccc(C(=O)N[C@@H]2CNCC[C@H]2c2c[nH]c3ccccc23)cc1Cl [Compound 89, N-((3S,4S)-4-(1H-indol-3-yl)piperidin-3-yl)-3-chloro-4-(4-chloro-1-methyl-1H-pyrazol-5-yl)benzamide] | 11 nM | 5.69 µM | 1.02 µM
2 | Cn1ncc(Cl)c1-c1ccc(C(=O)N[C@@H]2CNCC[C@H]2c2ccc(F)c(F)c2)c(-c2csc(Cl)c2)c1 [Compound 90, 4-(4-chloro-1-methyl-1H-pyrazol-5-yl)-2-(5-chlorothiophene-3-yl)-N-((3S, 4S)-4-(3,4-difluorophenyl)piperidin-3-yl)benzamide] | 14 nM | 1.83 µM | 0.69 µM
3 | Cn1ncc(Cl)c1-c1ccc(C(=O)N[C@@H]2CNCC[C@H]2c2cccc3[nH]ccc23)cc1Cl [Compound 91, N-((3S,4S)-4-(1H-indol-4-yl)piperidin-3-yl)-3-chloro-4-(4-chloro-1-methyl-1H-pyrazol-5-yl)benzamide] | 5 nM | 2.91 µM | 0.34 µM
4 | Cn1ncc(Cl)c1-c1cnc(C(=O)N[C@@H]2CNCC[C@H]2c2cccc(F)c2)cc1Cl [Compound 92, 4-chloro-5-(4-chloro-1-methyl-1H-pyrazol-5-yl)-N-((3S,4S)-4-(3-fluorophenyl)piperidin-3-yl)picolinamide] | 16 nM | 1.07 µM | 1.25 µM
5 | Cn1ncc(Cl)c1-c1cnc(C(=O)N[C@@H]2CNCC[C@H]2c2ccc(F)c(F)c2)nc1 [Compound 93, 5-(4-chloro-1-methyl-1H-pyrazol-5-yl)-N-((3S,4S)-4-(3,4-difluorophenyl)piperidin-3-yl)pyrimidine-2-formamide] | 8 nM | 7.89 µM | 5.82 µM
6 | Cc1cc(C(=O)N[C@@H]2CNCC[C@H]2c2ccc(F)c(F)c2)ncc1-c1c(Cl)cnn1C [Compound 94, 5-(4-chloro-1-methyl-1H-pyrazol-5-yl)-N-((3S,4S)-4-(3,4-difluorophenyl)piperidin-3-yl)-4-methylpicolinamide] | 7 nM | 1.22 µM | 0.89 µM
7 | Cn1ncc(Cl)c1-c1cnc(C(=O)N[C@@H]2CNCC[C@H]2c2ccc(Cl)c(C(F)(F)F)c2)cc1Cl [Compound 95, 4-chloro-5-(4-chloro-1-methyl-1H-pyrazol-5-yl)-N-((3S,4S)-4-(4-chloro-3-(trifluoromethyl)phenyl)piperidin-3-yl)picolinamide] | 17 nM | 0.98 µM | 0.95 µM
8 | Cn1ncc(Cl)c1-c1ccc(C(=O)N[C@@H]2CNCC[C@H]2c2ccc(Cl)c(C(F)(F)F)c2)nc1 [Compound 96, 5-(4-chloro-1-methyl-1H-pyrazol-5-yl)-N-((3S,4S)-4-(4-chloro-3-(trifluoromethyl)phenyl)piperidin-3-yl)picolinamide] | 9 nM | 2.41 µM | 0.78 µM
9 | Cn1ncc(Cl)c1-c1cnc(C(=O)N[C@@H]2CNCC[C@H]2c2ccc(F)c(F)c2)c(F)c1 [Compound 97, 5-(4-chloro-1-methyl-1H-pyrazol-5-yl)-N-((3S,4S)-4-(3,4-difluorophenyl)piperidin-3-yl)-3-fluoropicolinamide] | 8 nM | 4.89 µM | 4.14 µM
10 | CNC(=O)CC1C[C@@H](c2ccc(F)c(F)c2)[C@H](NC(=O)c2ccc(-c3c(Cl)cnn3C)cc2)CN1 (stereo partly drawn) [Compound 98] | 4 nM | 1.82 µM | 0.92 µM
11 | CNC(=O)CC1C[C@@H](c2ccc(F)c(F)c2)[C@H](NC(=O)c2ccc(-c3c(Cl)cnn3C)c(Cl)c2)CN1 (stereo partly drawn) [Compound 99, 3-chloro-4-(4-chloro-1-methyl-1H-pyrazol-5-yl)-N-((3S,4S)-4-(3,4-difluorophenyl)-6-(2-(methylamido)-2-oxoethyl)piperidin-3-yl)benzamide] | 7 nM | 3.38 µM | 1.21 µM
12 | Cn1ncc(Cl)c1-c1ccc(C(=O)N[C@@H]2CNC(CCO)C[C@H]2c2ccc(F)c(F)c2)cc1 (stereo partly drawn) [Compound 100] | 9 nM | 1.12 µM | 0.42 µM
13 | CNS(=O)(=O)CC1C[C@@H](c2ccc(F)c(F)c2)[C@H](NC(=O)c2ccc(-c3c(Cl)cnn3C)c(F)c2)CN1 (stereo partly drawn) [Compound 101] | 7 nM | 0.43 µM | 2.11 µM
14 | Cc1cc(C(=O)N[C@@H]2CNC(CCN3CCCCC3)C[C@H]2c2ccc(F)c(F)c2)ccc1-c1c(Cl)cnn1C (stereo partly drawn) [Compound 102, 4-(4-chloro-1-methyl-1H-pyrazol-5-yl)-N-((3S,4S)-4-(3,4-difluorophenyl)-6-(2-(piperidin-1-yl)ethyl)piperidin-3-yl)-3-methylbenzamide] | 8 nM | 0.34 µM | 0.8 µM
15 | Cn1ncc(Cl)c1-c1ccc(C(=O)N[C@@H]2CNC(CCNS(C)(=O)=O)C[C@H]2c2cccc(F)c2)cc1Cl (stereo partly drawn) [Compound 103, 3-chloro-4-(4-chloro-1-methyl-1H-pyrazol-5-yl)-N-((3S,4S)-4-(3-fluorophenyl)-6-(2-(methylsulfonamido)ethyl)piperidin-3-yl)benzamide] | 5 nM | 1.11 µM | 2.81 µM
16 | CNC(=O)CC1C[C@@H](c2ccc(F)c(F)c2)[C@H](NC(=O)c2cc(-c3c(Cl)cnn3C)c(Cl)s2)CN1 (stereo partly drawn) [Compound 104, 5-chloro-4-(4-chloro-1-methyl-1H-pyrazol-5-yl)-N-((3S,4S)-4-(3,4-difluorophenyl)-6-(2-(methylamido)-2-oxoethyl)piperidin-3-yl)thiophene-2-formamide] | 3 nM | 1.71 µM | 2.43 µM
17 | CNC(=O)CC1C[C@@H](c2ccc(F)c(F)c2)[C@H](NC(=O)c2cc(-c3c(Cl)cnn3C)c(Cl)o2)CN1 (stereo partly drawn) [Compound 105, 5-chloro-4-(4-chloro-1-methyl-1H-pyrazol-5-yl)-N-((3S,4S)-4-(3,4-difluorophenyl)-6-(2-(methylamido)-2-oxoethyl)piperidin-3-yl)furan-2-formamide] | 51 nM | 1.94 µM | 0.56 µM
18 | C=CCC1C[C@@H](c2ccc(Cl)c(Cl)c2)[C@H](NC(=O)c2cc(-c3c(Cl)cnn3C)c(Cl)o2)CN1 (stereo partly drawn) [Compound 106, N-((3S,4S)-6-allyl-4-(3,4-dichlorophenyl)piperidin-3-yl)-5-chloro-4-(4-chloro-1-methyl-1H-pyrazol-5-yl)furan-2-formamide] | 2 nM | 1.02 µM | 2.51 µM
19 | CN(C)CCC1C[C@@H](c2ccc(Cl)c(Cl)c2)[C@H](NC(=O)c2cc(-c3c(Cl)cnn3C)c(Cl)o2)CN1 (stereo partly drawn) [Compound 107, 5-chloro-4-(4-chloro-1-methyl-1H-pyrazol-5-yl)-N-((3S,4S)-4-(3,4-dichlorophenyl)-6-(2-(dimethylamino)ethyl)piperidin-3-yl)furan-2-formamide] | 14 nM | 1.01 µM | 1.08 µM
20 | Cn1ncc(Cl)c1-c1cc(C(=O)N[C@@H]2CNC(CCN3CCCCC3)C[C@H]2c2ccc(Cl)c(Cl)c2)oc1Cl (stereo partly drawn) [Compound 108, 5-chloro-4-(4-chloro-1-methyl-1H-pyrazol-5-yl)-N-((3S,4S)-4-(3,4-dichlorophenyl)-6-(2-(piperidin-1-yl)ethyl)piperidin-3-yl)furan-2-formamide] | 9 nM | 2.04 µM | 0.57 µM
21 | Cn1ncc(Cl)c1-c1cc(C(=O)N[C@@H]2CNC(CCN3CCOCC3)C[C@H]2c2ccc(Cl)c(Cl)c2)oc1Cl (stereo partly drawn) [Compound 109, 5-chloro-4-(4-chloro-1-methyl-1H-pyrazol-5-yl)-N-((3S,4S)-4-(3,4-dichlorophenyl)-6-(2-(morpholin-1-yl)ethyl)piperidin-3-yl)furan-2-formamide] | 9 nM | 1.3 µM | 0.78 µM
22 | Cn1ncc(Cl)c1-c1cc(C(=O)N[C@@H]2CNC(CCN3CCCC3)C[C@H]2c2ccc(Cl)c(Cl)c2)oc1Cl (stereo partly drawn) [Compound 110, 5-chloro-4-(4-chloro-1-methyl-1H-pyrazol-5-yl)-N-((3S,4S)-4-(3,4-dichlorophenyl)-6-(2-(pyrrolidin-1-yl)ethyl)piperidin-3-yl)furan-2-formamide] | 11 nM | 1.21 µM | 0.89 µM
23 | Cn1ncc(Cl)c1-c1cc(C(=O)N[C@@H]2CNC(CCCO)C[C@H]2c2ccc(Cl)c(Cl)c2)oc1Cl (stereo partly drawn) [Compound 111, 5-chloro-4-(4-chloro-1-methyl-1H-pyrazol-5-yl)-N-((3S,4S)-4-(3,4-dichlorophenyl)-6-(3-hydroxypropyl)piperidin-3-yl)furan-2-formamide] | 4 nM | 0.07 µM | 0.49 µM
24 | Cn1ncc(Cl)c1-c1cc(C(=O)N[C@@H]2CNC(CC(O)CO)C[C@H]2c2ccc(Cl)c(Cl)c2)oc1Cl (stereo partly drawn) [Compound 112, 5-chloro-4-(4-chloro-1-methyl-1H-pyrazol-5-yl)-N-((3S,4S)-4-(3,4-dichlorophenyl)-6-(2,3-dihydroxypropyl)piperidin-3-yl)furan-2-formamide] | 2 nM | 0.33 µM | 0.84 µM
25 | Cn1ncc(Cl)c1-c1cc(C(=O)N[C@@H]2CNC(CCO)C[C@H]2c2ccc(Cl)c(Cl)c2)oc1Cl (stereo partly drawn) [Compound 113, 5-chloro-4-(4-chloro-1-methyl-1H-pyrazol-5-yl)-N-((3S,4S)-4-(3,4-dichlorophenyl)-6-(2-hydroxyethyl)piperidin-3-yl)furan-2-formamide] | 3 nM | 0.14 µM | 1.72 µM
